According to ChEMBL document CHEMBL3994622, “Design and synthesis of new RAF kinase-inhibiting antiproliferative quinoline derivatives. Part 2: Diarylurea derivatives” (Eur J Med Chem, 2017):

Assays:
UO-31 = test: Growth inhibition of human UO31 cells assessed as cell growth at 10 uM incubated for 48 hrs by sulforhodamine B assay relative to control; type: functional; settings: UO-31, 48 h, read-out: Activity
A549 = test: Growth inhibition of human A549/ATCC cells assessed as cell growth at 10 uM incubated for 48 hrs by sulforhodamine B assay relative to control; type: functional; settings: A549, 48 h, read-out: Activity
RPMI-8226 = test: Growth inhibition of human RPMI8226 cells assessed as cell growth at 10 uM incubated for 48 hrs by sulforhodamine B assay relative to control; type: functional; settings: RPMI-8226, 48 h, read-out: Activity
HCC 2998 = test: Growth inhibition of human HCC2998 cells assessed as cell growth at 10 uM incubated for 48 hrs by sulforhodamine B assay relative to control; type: functional; settings: HCC 2998, 48 h, read-out: Activity
KM12 = test: Growth inhibition of human KM12 cells assessed as cell growth at 10 uM incubated for 48 hrs by sulforhodamine B assay relative to control; type: functional; settings: KM12, 48 h, read-out: Activity
Malme-3M = test: Growth inhibition of human MALME-3M cells assessed as cell growth at 10 uM incubated for 48 hrs by sulforhodamine B assay relative to control; type: functional; settings: read-out: Activity
NCI-H226 [1] = test: Growth inhibition of human NCI-H226 cells assessed as cell growth at 10 uM incubated for 48 hrs by sulforhodamine B assay relative to control; type: functional; settings: NCI-H226, 48 h, read-out: Activity
SN12C = test: Growth inhibition of human SN12C cells assessed as cell growth at 10 uM incubated for 48 hrs by sulforhodamine B assay relative to control; type: functional; settings: read-out: Activity
Hs-578T [2] = test: Growth inhibition of human Hs 578T cells assessed as cell growth at 10 uM incubated for 48 hrs by sulforhodamine B assay relative to control; type: functional; settings: read-out: Activity
SK-OV-3 [3] = test: Growth inhibition of human SKOV3 cells assessed as cell growth at 10 uM incubated for 48 hrs by sulforhodamine B assay relative to control; type: functional; settings: SK-OV-3, 48 h, read-out: Activity
HOP-62 = test: Growth inhibition of human HOP62 cells assessed as cell growth at 10 uM incubated for 48 hrs by sulforhodamine B assay relative to control; type: functional; settings: HOP-62, 48 h, read-out: Activity
A498 = test: Growth inhibition of human A498 cells incubated for 48 hrs by sulforhodamine B assay; type: functional; settings: A498, 48 h
NCI-H460 = test: Growth inhibition of human NCI-H460 cells assessed as cell growth at 10 uM incubated for 48 hrs by sulforhodamine B assay relative to control; type: functional; settings: NCI-H460, 48 h, read-out: Activity
OVCAR-3 = test: Growth inhibition of human OVCAR3 cells assessed as cell growth at 10 uM incubated for 48 hrs by sulforhodamine B assay relative to control; type: functional; settings: OVCAR-3, 48 h, read-out: Activity
NCI-H226 [4] = test: Growth inhibition of human NCI-H226 cells incubated for 48 hrs by sulforhodamine B assay; type: functional; settings: NCI-H226, 48 h
MDA-MB-468 = test: Growth inhibition of human MDA-MB-468 cells assessed as cell growth at 10 uM incubated for 48 hrs by sulforhodamine B assay relative to control; type: functional; settings: MDA-MB-468, 48 h, read-out: Activity
RXF 393 = test: Growth inhibition of human RXF393 cells assessed as cell growth at 10 uM incubated for 48 hrs by sulforhodamine B assay relative to control; type: functional; settings: RXF 393, 48 h, read-out: Activity
CAKI-1 = test: Growth inhibition of human Caki1 cells assessed as cell growth at 10 uM incubated for 48 hrs by sulforhodamine B assay relative to control; type: functional; settings: CAKI-1, 48 h, read-out: Activity
U-251 = test: Growth inhibition of human U251 cells assessed as cell growth at 10 uM incubated for 48 hrs by sulforhodamine B assay relative to control; type: functional; settings: U-251, 48 h, read-out: Activity
UACC-62 = test: Growth inhibition of human UACC62 cells assessed as cell growth at 10 uM incubated for 48 hrs by sulforhodamine B assay relative to control; type: functional; settings: UACC-62, 48 h, read-out: Activity
HCT-15 = test: Growth inhibition of human HCT15 cells incubated for 48 hrs by sulforhodamine B assay; type: functional; settings: HCT-15, 48 h
[5] = molecular target: RAF proto-oncogene serine/threonine-protein kinase (Homo sapiens, UniProt P04049); test: Inhibition of human c-RAF using MEK1 as substrate in presence of [33P]ATP by Hotspot assay
SK-OV-3 [6] = test: Growth inhibition of human SKOV3 cells incubated for 48 hrs by sulforhodamine B assay; type: functional; settings: SK-OV-3, 48 h
DU-145 = test: Growth inhibition of human DU145 cells assessed as cell growth at 10 uM incubated for 48 hrs by sulforhodamine B assay relative to control; type: functional; settings: DU-145, 48 h, read-out: Activity
SK-MEL-5 = test: Growth inhibition of human SK-MEL-5 cells assessed as cell growth at 10 uM incubated for 48 hrs by sulforhodamine B assay relative to control; type: functional; settings: SK-MEL-5, 48 h, read-out: Activity
SF-268 = test: Growth inhibition of human SF268 cells incubated for 48 hrs by sulforhodamine B assay; type: functional; settings: SF-268, 48 h
SK-MEL-2 = test: Growth inhibition of human SK-MEL-2 cells assessed as cell growth at 10 uM incubated for 48 hrs by sulforhodamine B assay relative to control; type: functional; settings: SK-MEL-2, 48 h, read-out: Activity
SR = test: Growth inhibition of human SR cells assessed as cell growth at 10 uM incubated for 48 hrs by sulforhodamine B assay relative to control; type: functional; settings: read-out: Activity
Hs-578T [7] = test: Growth inhibition of human Hs 578T cells incubated for 48 hrs by sulforhodamine B assay; type: functional
EKVX = test: Growth inhibition of human EKVX cells assessed as cell growth at 10 uM incubated for 48 hrs by sulforhodamine B assay relative to control; type: functional; settings: read-out: Activity
HCT-116 = test: Growth inhibition of human HCT116 cells assessed as cell growth at 10 uM incubated for 48 hrs by sulforhodamine B assay relative to control; type: functional; settings: HCT-116, 48 h, read-out: Activity
OVCAR-4 = test: Growth inhibition of human OVCAR4 cells assessed as cell growth at 10 uM incubated for 48 hrs by sulforhodamine B assay relative to control; type: functional; settings: OVCAR-4, 48 h, read-out: Activity
NCI/ADR-RES = test: Growth inhibition of human NCI/ADR-RES cells incubated for 48 hrs by sulforhodamine B assay; type: functional
[8] = read-out: LC50 (the source's name)

Sequence of RAF proto-oncogene serine/threonine-protein kinase (P04049 whole entry): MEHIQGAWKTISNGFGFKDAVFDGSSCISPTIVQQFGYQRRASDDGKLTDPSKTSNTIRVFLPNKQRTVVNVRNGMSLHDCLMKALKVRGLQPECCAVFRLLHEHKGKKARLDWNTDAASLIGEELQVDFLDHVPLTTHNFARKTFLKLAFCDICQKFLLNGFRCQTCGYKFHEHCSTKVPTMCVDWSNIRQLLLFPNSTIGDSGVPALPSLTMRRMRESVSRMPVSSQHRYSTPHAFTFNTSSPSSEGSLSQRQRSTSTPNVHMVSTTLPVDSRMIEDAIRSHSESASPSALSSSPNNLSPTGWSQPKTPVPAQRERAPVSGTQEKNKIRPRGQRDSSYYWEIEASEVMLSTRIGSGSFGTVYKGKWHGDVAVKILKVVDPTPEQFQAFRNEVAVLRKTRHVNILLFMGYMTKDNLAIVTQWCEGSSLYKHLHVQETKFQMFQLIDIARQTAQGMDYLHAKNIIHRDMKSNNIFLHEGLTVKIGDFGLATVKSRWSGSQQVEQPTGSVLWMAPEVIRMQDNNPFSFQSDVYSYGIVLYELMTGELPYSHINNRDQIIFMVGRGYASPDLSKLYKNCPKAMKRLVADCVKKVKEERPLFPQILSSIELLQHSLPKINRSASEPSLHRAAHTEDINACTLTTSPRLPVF

SMILES: COc1cc2cc(Oc3ccc(NC(=O)Nc4ccc(Cl)c(C(F)(F)F)c4)cc3)c(C)nc2cc1OC
- growth at 10 µM (UO-31): -45.1%
- growth at 10 µM (A549): -17.2%
- growth at 10 µM (RPMI-8226): -26.4%
- growth at 10 µM (HCC 2998): -13.1%
- growth at 10 µM (KM12): -16.4%
- growth at 10 µM (Malme-3M): -23%
- growth at 10 µM (NCI-H226 [1]): 4.49%
- growth at 10 µM (SN12C): 13.2%
- growth at 10 µM (Hs-578T [2]): 2.5%
- growth at 10 µM (SK-OV-3 [3]): -4.09%
- growth at 10 µM (HOP-62): -51%
- GI50 (A498): 0.754 µM
- TGI (A498): 3.32 µM
- CC50 (A498; [8]): 10.7 µM
- growth at 10 µM (NCI-H460): -19.8%
- growth at 10 µM (OVCAR-3): -27.3%
- GI50 (NCI-H226 [4]): 1.27 µM
- TGI (NCI-H226 [4]): 5.01 µM
- CC50 (NCI-H226 [4]; [8]): > 32.5 µM
- growth at 10 µM (MDA-MB-468): -42.7%
- growth at 10 µM (RXF 393): -33.4%
- growth at 10 µM (CAKI-1): -8.92%
- growth at 10 µM (U-251): -80.4%
- growth at 10 µM (UACC-62): -51.5%
- GI50 (HCT-15): 1.15 µM
- LC50 (lethal concentration, 50% net cell kill) (HCT-15): 16.9 µM
- TGI (HCT-15): 4.86 µM
- IC50 [5]: 0.1 µM
- GI50 (SK-OV-3 [6]): 1.35 µM
- TGI (SK-OV-3 [6]): 5.79 µM
- CC50 (SK-OV-3 [6]; [8]): 31.5 µM
- growth at 10 µM (DU-145): 12.7%
- growth at 10 µM (SK-MEL-5): -73.4%
- GI50 (SF-268): 1.55 µM
- LC50 (50% lethal concentration) (SF-268): 22.6 µM
- TGI (SF-268): 6.34 µM
- growth at 10 µM (SK-MEL-2): -49.8%
- growth at 10 µM (SR): -32.5%
- GI50 (Hs-578T [7]): 0.72 µM
- TGI (Hs-578T [7]): 2.31 µM
- CC50 (Hs-578T [7]; [8]): 27.4 µM
- growth at 10 µM (EKVX): 8.83%
- growth at 10 µM (HCT-116): -87.3%
- growth at 10 µM (OVCAR-4): 17.1%
- GI50 (NCI/ADR-RES): 1.06 µM
- TGI (NCI/ADR-RES): 4.91 µM
- CC50 (NCI/ADR-RES; [8]): > 32.5 µM
